Reference: patent US7084158B2, “Substituted propargylamines” (Bayer Cropscience S.A., priority 2001, dated 2006)

Tests used:
Type in all cases: in vivo
Set-up in all cases: key: compounds were considered to be active when, at a concentration of 500 ppm or less, they had an activity on the harmful organisms of 50% or more
[1] = system: Leptinotarsa decemlineata; assay: Example L: potato leaves and larvae sprayed, Colorado beetle mortality; details: 500 ppm or less, after 4 days
Protocol: Potato leaves were populated with larvae of the Colorado beetle (Leptinotarsa decemlineata). Leaves and larvae were then sprayed with an aqueous solution of the formulated compound to be examined. After 4 days of storage at about 25° C., the effect of the compound on the larvae was determined (mortality). The compounds of the following examples were active: 60, 70, 1002, 1004, 1005, 1036, 1047, 197.

[2] = system: Heliothis virescens; assay: Example AH: sprayed cotton leaves, antifeeding activity on tobacco budworm larvae; details: 500 ppm or less, L2 larvae, after 2, 3 and 4 days
Protocol: Cotton leaves were placed into a Petri dish, sprayed with an aqueous solution of the formulated compound to be examined and, after drying, populated with 5 L2 larvae of the American tobacco budworm (Heliothis virescens). After 2, 3 and 4 days of storage at about 25° C., the antifeeding activity of the compound on the larvae was determined. The following examples were active: 1036, 70, 60.

[3] = system: Spodoptera exigua; assay: Example Z: cotton leaves with larvae sprayed, sugar beet armyworm mortality; details: 500 ppm or less; cotton leaves populated then sprayed; L2 larvae; after 4 days
Protocol: Cotton leaves were populated with 5 L2 larvae of the sugar beet armyworm (Spodoptera exigua) and then sprayed with an aqueous solution of the formulated compound to be examined. After 4 days of storage at about 23° C., the mortality among the larvae was determined. The following examples were active: 1036, 70, 60, 1047, 197.

[4] = system: Spodoptera exigua; assay: Example X: dipped freeze-dried diet cube, sugar beet armyworm L2 larvae mortality; details: 500 ppm or less, after 4 days
Protocol: Insect diet (as freeze-dried cube) was dipped into an aqueous solution of the formulated compound to be examined and then placed into a Petri dish. 10 L2 larvae of the sugar beet armyworm (Spodoptera exigua) were then added. The Petri dish was then closed with a lid. After 4 days of storage at about 23° C., the mortality among the larvae was determined. The following examples were active: 1036, 60.

[5] = system: Spodoptera exigua; assay: Example Y: cotton plants sprayed, cut leaves, sugar beet armyworm mortality; details: 500 ppm or less, leaves cut after drying, L2 larvae, after 4 days
Protocol: Cotton plants were sprayed with an aqueous solution of the formulated compound to be examined. After drying, leaves were cut off, placed into a Petri dish and populated with 5 L2 larvae of the sugar beet armyworm (Spodoptera exigua). After 4 days of storage at about 23° C., the mortality among the larvae was determined. The following examples were active: 1036, 70, 60, 1047, 197.

[6] = system: Diabrotica undecimpunctata; assay: Example C: corn rootworm eggs with maize corn, mortality; details: 500 ppm or less; 4-5-day-old eggs; after 6 days
[7] = system: Plutella maculipennis; assay: Example W: cabbage plant, root-systemic activity on diamondback moth larvae; details: 500 ppm or less; cabbage plant in treated water, populated after one week; after 3 days
Protocol: 2.4 ml of an aqueous solution of the formulated compound to be examined were pipetted into a bottle filled with 21.6 ml of water. A 14-day-old cabbage plant was transferred into the bottle. After one week, the plant was populated with 5 larvae of the diamondback moth (Plutella maculipennis). Plants and animals were then stored in a climatized chamber (23° C., 40–60% relative atmospheric humidity). After 3 days of storage, the root-systemic activity of the compound on the larvae was determined (mortality). The following examples were active: 1036, 70, 60.

CC1CCN(CC#Cc2cc(C(F)(F)F)cc(C(F)(F)F)n2)CC1 [Example 60]
active: effect on the larvae (mortality) [1] | antifeeding activity on the larvae [2] | mortality among the larvae [3] | mortality among the larvae [4] | mortality among the larvae [5] | effect on the eggs and hatched larvae (mortality) [6] | root-systemic activity on the larvae (mortality) [7]
